Source: EPA's CvTdb concentration-time database (doi:10.1093/toxsci/kfy020)

Experiments:
Assay in all cases: concentration in plasma after dosing
rat [1] = details: dosed: 2,4-D, 1.043 mg/kg, oral, male, Sprague-Dawley
rat [2] = details: male, Sprague-Dawley
rat [3] = details: dosed: 2,4-D, 0.20467 mg/kg, iv, male, Sprague-Dawley
rat [4] = details: dosed: 2,4-D, 0.20467 mg/kg, iv, male, Sprague-Dawley; remark: listed apart in the source
rat [5] = details: dosed: 2,4-D, 1.043 mg/kg, oral, male, Sprague-Dawley; remark: listed apart in the source
rat [6] = details: dosed: Imidacloprid, 5.0000000000 mg/kg, iv, male, Sprague-Dawley
rat [7] = details: dosed: Imidacloprid, 5.0000000000 mg/kg, iv, male, Sprague-Dawley; remark: listed apart in the source
rat [8] = details: dosed: Imidacloprid, 5.0000000000 mg/kg, iv, male, Sprague-Dawley; remark: listed apart in the source
rat [9] = details: dosed: Imidacloprid, 5.0000000000 mg/kg, oral, male, Sprague-Dawley
rat [10] = details: dosed: Imidacloprid, 5.0000000000 mg/kg, oral, male, Sprague-Dawley; remark: listed apart in the source
rat [11] = details: dosed: Imidacloprid, 5.0000000000 mg/kg, oral, male, Sprague-Dawley; remark: listed apart in the source
rat [12] = details: dosed: Novaluron, 2.0000000000 mg/kg, oral, male, Sprague-Dawley
rat [13] = details: dosed: Novaluron, 2.0000000000 mg/kg, oral, male, Sprague-Dawley; remark: listed apart in the source
rat [14] = details: dosed: Novaluron, 2.0000000000 mg/kg, oral, male, Sprague-Dawley; remark: listed apart in the source
rat [15] = details: dosed: Novaluron, 0.4000000000 mg/kg, iv, male, Sprague-Dawley
rat [16] = details: dosed: Novaluron, 0.4000000000 mg/kg, iv, male, Sprague-Dawley; remark: listed apart in the source

O=C(O)COc1ccc(Cl)cc1Cl [2,4-D]
concentration in plasma [ng/mL]
Details	0.167 h	0.25 h	0.5 h	1 h	2 h	4 h	5 min	8 h	24 h
rat [1]	–	1440	1240	816	858	688	–	504	0.48
rat [3]	616	–	219	75.8	9.23	0.324	911	–	–
rat [4]	250	–	79.7	32.3	30.8	7.75	461	–	–
rat [5]	–	1200	690	417	764	743	–	402	–

concentration in plasma [ng/mL], rat [2], dosed: 2,4-D
Details	0.167 h	0.25 h	0.5 h	1 h	2 h	4 h	5 min	8 h	24 h
0.20467 mg/kg, iv	466	–	192	71.5	22	1.84	710	–	–
1.043 mg/kg, oral	–	1030	1030	566	492	154	–	412	0.0594

O=[N+]([O-])/N=C1\NCCN1Cc1ccc(Cl)nc1 [Imidacloprid]
concentration in plasma [ng/mL]
Details	rat [6]	rat [7]	rat [8]	rat [9]	rat [10]	rat [11]
0.25 h	–	–	–	1770	4410	831
0.5 h	1140	382	743	2660	4310	935
1 h	922	560	603	2670	6030	1930
2 h	626	694	786	2380	3400	2060
4 h	478	548	552	1990	2480	2620
5 min	1260	217	786	–	–	–
8 h	191	170	232	648	2670	2950
10 min	1500	328	683	–	–	–
12 h	67.5	67	141	278	1520	1200
24 h	8.66	8.54	14	46	259	279
48 h	–	–	2.12	14.5	33.6	17.9
72 h	–	2.49	–	8.76	–	13.2

concentration in plasma [ng/mL], rat [2], dosed: Imidacloprid, 5.0000000000 mg/kg
Details	iv	oral
0.25 h	–	1600
0.5 h	971	2290
1 h	683	1550
2 h	943	2920
4 h	695	2610
5 min	1190	–
8 h	327	2330
10 min	1260	–
12 h	233	1360
24 h	17.6	171
48 h	2.89	19.7
72 h	–	6.62

O=C(NC(=O)c1c(F)cccc1F)Nc1ccc(OC(F)(F)C(F)OC(F)(F)F)c(Cl)c1 (configuration not stated) [Novaluron]
concentration in plasma [ng/mL]
Details	rat [12]	rat [13]	rat [14]	rat [15]	rat [16]
0.25 h	14	9.95	5.18	–	–
0.5 h	37.7	24	25.3	202	125
1 h	75	49.9	70.4	191	112
2 h	165	63	135	120	68.3
4 h	149	132	151	75.9	32.7
5 min	–	–	–	283	241
8 h	191	89.1	148	34.7	31.4
10 min	–	–	–	188	43.2
12 h	129	117	172	21.7	11.6
24 h	59.6	81.5	44.3	9.78	8.64
48 h	40.7	35	29.8	5.04	–
72 h	22.9	16.2	14.6	5.1	–

rat [2], dosed: Novaluron
Details	concentration in plasma [ng/mL]
0.25 h, 2.0000000000 mg/kg, oral	2.87
0.5 h, 0.4000000000 mg/kg, iv	194
0.5 h, 2.0000000000 mg/kg, oral	23.8
1 h, 0.4000000000 mg/kg, iv	176
1 h, 2.0000000000 mg/kg, oral	70.5
2 h, 0.4000000000 mg/kg, iv	188
2 h, 2.0000000000 mg/kg, oral	137
4 h, 0.4000000000 mg/kg, iv	121
4 h, 2.0000000000 mg/kg, oral	168
5 min, 0.4000000000 mg/kg, iv	252
8 h, 0.4000000000 mg/kg, iv	48.3
8 h, 2.0000000000 mg/kg, oral	199
10 min, 0.4000000000 mg/kg, iv	161
12 h, 0.4000000000 mg/kg, iv	21.8
12 h, 2.0000000000 mg/kg, oral	141
24 h, 0.4000000000 mg/kg, iv	15.9
24 h, 2.0000000000 mg/kg, oral	53.2
48 h, 0.4000000000 mg/kg, iv	6.27
48 h, 2.0000000000 mg/kg, oral	25.3
72 h, 0.4000000000 mg/kg, iv	2.8
72 h, 2.0000000000 mg/kg, oral	21.4
